Our source for the Emax and EC50 values is patent US20250026752A1, “POSITIVE ALLOSTERIC MODULATORS OF THE MUSCARINIC ACETYLCHOLINE RECEPTOR M4” (Vanderbilt University, priority 2021, published 2025).

For this assay, the target named is T1, human mAChR M4 (Homo sapiens, UniProt P08173).
T1 construct: expressed in transfected cells; host or cells: CHO-K1 (ATCC), stably expressing hM4 and Gqi5
T1 sequence (P08173 1-479): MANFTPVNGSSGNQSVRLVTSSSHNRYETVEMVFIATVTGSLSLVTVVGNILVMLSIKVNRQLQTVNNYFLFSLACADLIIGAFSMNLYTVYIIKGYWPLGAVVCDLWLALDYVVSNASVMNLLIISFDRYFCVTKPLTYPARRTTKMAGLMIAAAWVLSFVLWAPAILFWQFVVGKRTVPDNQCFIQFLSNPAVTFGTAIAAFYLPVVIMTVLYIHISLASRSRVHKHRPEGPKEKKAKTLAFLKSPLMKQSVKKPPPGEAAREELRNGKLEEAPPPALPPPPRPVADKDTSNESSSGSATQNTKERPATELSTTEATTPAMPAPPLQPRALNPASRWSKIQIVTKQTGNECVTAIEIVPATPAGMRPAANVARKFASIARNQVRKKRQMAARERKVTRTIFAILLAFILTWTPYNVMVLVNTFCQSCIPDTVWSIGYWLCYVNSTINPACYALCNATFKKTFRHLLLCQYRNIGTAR
The experiment in a line: mAChR M4 cell-based functional assay: calcium flux (Fluo-4, FDSS), positive allosteric modulator activity on the EC20 acetylcholine response, hM4-Gqi5 CHO-K1 cells. Conditions: for Emax at 30 µM: CHO-K1, human M4, % ACh maximum at 30 μM; for EC50: human M4, PAM activity on EC20 acetylcholine response, calcium flux, read-out: Human M4 EC50. The procedure, abridged:
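Potentiation was taken as the concentration-dependent rise in the EC20 acetylcholine calcium response, fitted by a four-parameter logistic with EC20 as baseline. Fluo-4-loaded hM4-Gqi5 CHO-K1 cells received 11-point, threefold-diluted compound before acetylcholine at 144 s; FDSS read at 1 Hz.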
A general note: Calcium flux is commonly read through the fluorescence of an indicator in the cells.

As to `COc1ccc2ncnc(N3CCc4ncc(-c5cnc(F)cc5C)cc4C3)c2c1` [Compound 308, 4-(3-(6-fluoro-4-methylpyridin-3-yl)-7,8-dihydro-1,6-naphthyridin-6(5H)-yl)-6-methoxyquinazoline], the Emax (in general, the maximal effect, on the per cent scale that the assay sets) at 30 µM is 71% and the concentration giving a half-maximal response (EC50) (commonly the concentration giving half of the maximal effect) amounted to 0.11 µM.
For `COc1nc(N2CCc3ncc(C(F)(F)F)cc3C2)c2cc(C)ccc2n1` [Compound 179, 2-methoxy-6-methyl-4-[3-(trifluoromethyl)-7,8-dihydro-5H-1,6-naphthyridin-6-yl]quinazoline] the same measures were 98% and 0.34 µM.
On to `Fc1ccc2ncnc(N3CCc4ncc(N5CCCn6nccc65)cc4C3)c2c1` [Compound 74, 4-[3-(6,7-dihydro-5H-pyrazolo[1,5-a]pyrimidin-4-yl)-7,8-dihydro-5H-1,6-naphthyridin-6-yl]-6-fluoro-quinazoline], for which the maximal response (Emax) at 30 µM stood at 82% and the EC50 was determined as 0.01 µM.
Take `Cc1cc(F)ncc1-c1cnc2c(c1)CN(c1ncnc3ccc(F)cc13)CC2` [Compound 304, 6-fluoro-4-(3-(6-fluoro-4-methylpyridin-3-yl)-7,8-dihydro-1,6-naphthyridin-6(5H)-yl)quinazoline]: the maximal effect (Emax) at 30 µM is 95% and the EC50 is 0.08 µM.
As to `[2H]C1([2H])N(c2cnc3c(c2)CN(c2ncnc4ccc(F)cc24)CC3)c2ccnn2C([2H])([2H])C1([2H])[2H]` [Compound 281, 4-(3-(6,7-dihydropyrazolo[1,5-a]pyrimidin-4(5H)-yl-5,5,6,6,7,7-d6)-7,8-dihydro-1,6-naphthyridin-6(5H)-yl)-6-fluoroquinazoline], the maximal response (Emax) at 30 µM was found to be 104% and the EC50 was 0.03 µM.
With `COc1ccc2nc(C)nc(N3CCc4ncc(C(F)(F)F)cc4C3)c2c1` [Compound 168, 6-methoxy-2-methyl-4-[3-(trifluoromethyl)-7,8-dihydro-5H-1,6-naphthyridin-6-yl]quinazoline], the maximal effect (Emax) at 30 µM stood at 71% and the half-maximal effective concentration (EC50) is 0.51 µM.
As to `Fc1cc2c(N3CCc4ncc(Nc5cccnc5F)cc4C3)nc(Cl)nc2cc1Cl` [Compound 110, 6-(2,7-dichloro-6-fluoro-quinazolin-4-yl)-N-(2-fluoro-3-pyridyl)-7,8-dihydro-5H-1,6-naphthyridin-3-amine], the Emax at 30 µM was determined as 76% and the 50% effective concentration (EC50) is 3.87 µM.
For `Cc1ccc(Oc2cnc3c(c2)CN(c2ncnc4ccc(Cl)cc24)CC3)c(F)c1` [Compound 145, 6-chloro-4-[3-(2-fluoro-4-methyl-phenoxy)-7,8-dihydro-5H-1,6-naphthyridin-6-yl]quinazoline] the same measures were 64% and 4.8 µM.
Consider `Fc1ccc2nc(N3CCCC3)nc(N3CCc4ncc(C(F)(F)F)cc4C3)c2c1` [Compound 195, 6-fluoro-2-pyrrolidin-1-yl-4-[3-(trifluoromethyl)-7,8-dihydro-5H-1,6-naphthyridin-6-yl]quinazoline], for which the maximum response (Emax) at 30 µM turned out to be 95% and the 50% effective concentration (EC50) turned out to be 0.73 µM.
For `Cc1ccc2nc(Nc3ccnn3C)nc(N3CCc4ncc(C(F)(F)F)cc4C3)c2c1` [Compound 181, 6-methyl-N-(2-methylpyrazol-3-yl)-4-[3-(trifluoromethyl)-7,8-dihydro-5H-1,6-naphthyridin-6-yl]quinazolin-2-amine] the same measures were 85% and 0.55 µM.
With `Clc1ccc2ncnc(N3CCc4ncc(-c5cnn(C6CC6)c5)cc4C3)c2c1` [Compound 17, 6-chloro-4-[3-(1-cyclopropylpyrazol-4-yl)-7,8-dihydro-5H-1,6-naphthyridin-6-yl]quinazoline], the Emax at 30 µM was 78% and the EC50 amounted to 0.12 µM.
For `Cc1nc(N2CCc3ncc(Nc4ccnn4C)cc3C2)c2cc(F)ccc2n1` [Compound 86, 6-(6-fluoro-2-methyl-quinazolin-4-yl)-N-(2-methylpyrazol-3-yl)-7,8-dihydro-5H-1,6-naphthyridin-3-amine] the same measures were 91% and 0.03 µM.
